Results as given in patent US20050049273A1, “Acridone derivatives as anti-herpesvirus agents” (priority 2003, published 2005).
Where two headings read alike, the source gives them in different places.

How the values were obtained:
HSV = details: published work; cited from earlier work
HSV-1 = HSV-1 viral yield-reduction assay in Vero cells; assay type: cell-based, HSV-1 (KOS); details: for EC50: read-out: ED50 HSV-1
Method: (§1) Three types of antiviral assay were used for HSV studies. For plaque-elimination, Vero cells (70000 per cm^2) were infected with 50-100 PFU for 30 minutes with occasional agitation. The inoculate was replaced with medium containing 1% (v/v) fetal calf serum and supplemented with test agents as indicated (see below). After two days of culture, cells were processed using crystal violet staining and plaques were scored by visual examination (FIG. 3). For examination of anti-HSV activity in parallel cultures during biochemical experiments, the progeny virus obtained from cells and from the culture medium at 23 hours post-infection was determined by limiting dilution on Vero cells (FIG. 5A). Macroscopic viral plaques were scored after two days of incubation in medium containing 1% (w/v) carboxymethylcellulose and 0.5% (v/v) fetal calf serum. For ED50 measurements, the concentration of compound that reduced a single-cycle of viral yield by 50% relative to the control and under the specified condition was interpolated from dose-response graphs (FIG. 4, Table 1). Over the course of ten independent experiments, the mean cell-associated viral yield was 180 PFU per cell (SD=80) and 10 PFU per cell (SD=5) for HSV-1 and HSV-2 respectively. The percent viral release (into the culture medium) was 16 (SD=7) and 0.9 (SD=0.6) for HSV-1 and HSV-2 respectively. These virologic parameters were independent of viral load and serum concentration.

HSV-2 [1] = experiment: HSV-2 viral yield-reduction assay in Vero cells; assay type: cell-based, HSV-2 (strain 186); details: for EC50: read-out: ED50 HSV-2
Method: as §1

HCMV = HCMV plaque-elimination assay in HEL cells; assay type: cell-based, HCMV (Towne); details: for EC50: read-out: ED50 HCMV; for activity against HCMV, in words: quantitative comparison, Table 1; for percent inhibition observed at the highest concentration tested, HCMV: number in parenthesis, NA = no activity observed; for inhibition of HCMV replication in plaque-elimination screen: fixed concentration, five micromolar (1, 2, ACV ten micromolar; PFA 250 micromolar), FIG. 3
Method: Virus and cell growth inhibition assays. Established virus culture techniques were used (E.-S. Huang, and T Kowalnick, Diagnosis of human cytomegalovirus infection: laboratory approaches, in Molecular Aspects of Human Cytomegalovirus Diseases (Becker,Y., Daria, G., and Huang, E.-S. eds.), Springer-Verlag, Berlin, pp. 225-255 (1993); Akanitapichat et al., Antiviral Research 45: 123-134 (2000)) but with the following modifications. For the HCMV plaque-elimination assay, HEL cells were plated in standard medium at 60,000 per cm^2 and infected the following day with 50-100 PFU HCMV for 90 minutes with occasional agitation. The inoculate was replaced with maintenance medium containing 5% (v/v) fetal calf serum and test agents as indicated (see below). After an additional 6-10 days of culture, cells were fixed with formal saline (10% formalin in phosphate-buffered saline; PBS), stained with 0.1% (w/v) toluidine blue in PBS and plaques were scored using an inverted light microscope at 40x magnification (FIGS. 2A and 3). For ED50 determination, the value was interpolated from dose-response data and is the concentration of compound that reduced plaque formation by 50% relative to control under the specified condition.

[2] = Vero cell growth inhibition (Sulforhodamine B protein-dye binding); assay type: cell-based, African green monkey; details: African green monkey
Method: (§2) The effect of compounds on host cell replication (CC50), was measured using Sulforhodamine B-staining and the spectrophotometric method originally developed for the NCIs's in vitro anti-cancer drug screening program (P. Skehan et al., J. Natl. Cancer. Inst. 82, 1107-1112 (1990)). The CC50 value is the concentration of compound that inhibited actively replicating cells by 50% of control respectively after two days of continuous treatment.

Vero = experiment: as above; assay type: cell-based, African green monkey; details: for percent inhibition observed at the highest concentration tested, Vero growth: number in parenthesis
Method: as §2

[3] = HEL cell growth inhibition (Sulforhodamine B protein-dye binding); assay type: cell-based, human; details: human, cell growth inhibition, two days of continuous treatment
Method: as §2

HSV-1 proteins = experiment: HSV-1 viral protein accumulation (Western immunoblot); assay type: cell-based; details: 10 micromolar, 16 hours, 2% (v/v) serum, FIG. 5D
HEL = HEL cell growth inhibition (Sulforhodamine B protein-dye binding); assay type: cell-based, human; details: for percent inhibition observed at the highest concentration tested, HEL growth: number in parenthesis, NA = no activity observed
Method: as §2

HSV-2 [4] = experiment: HSV-2 plaque-elimination assay in Vero cells; assay type: cell-based, HSV-2 (strain 186); details: fixed concentration, five micromolar (1, 2, ACV ten micromolar; PFA 250 micromolar), Vero cells, FIG. 3
Method: as §1

[5] = test system: HSV-2 late viral proteins; experiment: HSV-2 late viral protein synthesis (pulse labeling, SDS-PAGE, phosphor-imaging); assay type: cell-based; details: twenty micromolar, 0.1 PFU, 2% (v/v) serum
Method: Analysis of HSV proteins. Viral protein synthesis was examined using pulse labeling, SDS-PAGE gel separation and phosphor-imaging. Vero cells were infected and treated under conditions specified below and in FIG. 5. After 17 hours of infection, 10 μCi/mL TRAN^35S-LABEL ™ was added directly to culture medium and incubation continued for 30 more minutes. Radio-labeled cell cultures were carefully washed with PBS pre-warmed to 37° C. then lysed at 2,000,000 cells per mL in the same buffer supplemented with 2% (w/v) SDS. After denaturing cell lysates in Laemmli loading buffer, total proteins recovered from 30,000 cells were separated using either 8% (FIG. 5B) or 10% (FIG. 5D) PAGE-SDS gels (U. Laemmli, Nature, 227,680-685 (1970)). Proteins were transferred to nitrocellulose and the synthesized proteins were visualized and quantified using a STORM phosphorimager (Molecular Devices, Sunnyvale CA) and the supplied ImageQuant software according to the manufacturers instructions (FIG. 5, panels B and C). Protein load between samples was compared qualitatively by visual examination of filters stained with India-Ink. A complementary approach for assessing drug effect on viral proteins involved immune detection on a Western-blot using conditions and reagents described previously (Akanitapichat and Bastow, supra 2002).

host cell replication = experiment: Host cell replication (CC50), host cell not specified; assay type: cell-based; details: mean CC50
Method: as §2

[6] = Human alphaherpesvirus 1, viral yield-reduction, 1 PFU per cell in 5% (v/v) serum, Vero cells
[7] = Human alphaherpesvirus 2, viral yield-reduction, 1 PFU per cell in 5% (v/v) serum, Vero cells
[8] = Human betaherpesvirus 5, prevention of microscopic viral plaques, HEL cells
[9] = Vero cells, cell growth inhibition, two days of continuous treatment, read-out: CC50 Vero
[10] = quantitative comparison, Table 1
[11] = cell growth inhibition, two days of continuous treatment

O=c1c2cc(O)ccc2[nH]c2cc(O)cc(O)c12 [1,3,7-trihydroxyacridone]
selectivity of anti-HSV action (HSV): 3 fold

Nc1nc2c(ncn2COCCO)c(=O)[nH]1 [ACV, Acyclovir]
EC50 (HSV-1; [6]): 0.2 µM
activity against HSV-2 relative to HSV-1 (HSV-2 [1]): four-fold less active
EC50 (HSV-2 [1]; [7]): 0.8 ± 0.1 µM
EC50 (HCMV; [8]): > 200 µM
activity against HCMV, in words (HCMV): inactive
CC50 at 2 days [2, 9]: > 200 µM
percent inhibition observed at the highest concentration tested, Vero growth (Vero): 41%
CC50 at 2 days ([3]; HEL cells): > 500 µM
effect on HSV-1 viral protein accumulation (HSV-1 proteins): abolished

COc1cc(O)c2c(=O)c3cccc(O)c3n(C)c2c1OC [Citrusinine-I]
activity against HSV-1 (KOS), in words (HSV-1; [10]): inactive
activity against HSV-2, in words (HSV-2 [1]; [10]): selective inhibitor
HSV-2 replication remaining (HSV-2 [1]; twenty micromolar, 0.1 PFU, 22 hours, 2% (v/v) serum): about 10 % of control
activity against HCMV, in words (HCMV): selective inhibitor
CC50 (Vero; [11]): 27 ± 4 µM
CC50 (HEL; [11]): 41 ± 5 µM
inhibition of HSV-2 replication in plaque-elimination screen (HSV-2 [4]): HSV plaque-size was uniformly smaller in the presence of Citrusinine I but the number of visible plaques was not reduced
HSV-2 late protein synthesis remaining [5]: about 10 % of control

O=c1c2cccc(Cl)c2[nH]c2cc(O)cc(O)c12 [Compound 1, 5-chloro-1,3-dihydroxyacridone]
EC50 (HSV-1; Human alphaherpesvirus 1, Vero): 4.3 ± 0.8 µM
EC50 (HSV-2 [1]; Human alphaherpesvirus 2, Vero): 3.8 ± 0.3 µM
EC50 (HCMV; Human betaherpesvirus 5, HEL): > 50 µM
percent inhibition observed at the highest concentration tested, HCMV (HCMV): 25%
CC50 at 2 days ([2]; cell growth inhibition, two days of continuous treatment, read-out: CC50 Vero): > 50 µM
percent inhibition observed at the highest concentration tested, Vero growth (Vero): 23%
CC50 at 2 days [3]: > 50 µM
percent inhibition observed at the highest concentration tested, HEL growth (HEL): 18%
selectivity of anti-HSV action (HSV): 26 fold

COc1ccc2[nH]c3cc(O)cc(O)c3c(=O)c2c1 [Compound 3, 1,3-Dihydroxy-7-methoxyacridone]
inhibition of HCMV replication in plaque-elimination screen (HCMV; HEL cells): inactive
inhibition of HSV-2 replication in plaque-elimination screen (HSV-2 [4]): inactive

COc1cc(O)c2c(=O)c3cc(O)ccc3[nH]c2c1 [Compound 4, 1,7-Dihydroxy-3-methoxyacridone]
CC50 at 2 days ([2]; Vero cells, read-out: CC50 against Vero replication): 25 µM
inhibition of HSV-2 replication in plaque-elimination screen (HSV-2 [4]): only inhibited HSV replication

COc1cc(O)c2c(=O)c3cccc(OC)c3[nH]c2c1 [Compound 5, 3,5-Dimethoxy-1-hydroxyyacridone]
inhibition of HCMV replication in plaque-elimination screen (HCMV; HEL cells): inactive
inhibition of HSV-2 replication in plaque-elimination screen (HSV-2 [4]): inactive
CC50 (host cell replication): 33 µM

COc1ccc2[nH]c3cc(OC(C)C)cc(O)c3c(=O)c2c1 [Compound 8, 1-Hydroxy-3-isopropoxy-7-methoxyacridone]
viral release (HSV-2 [1]; 10 μM in 2% (v/v) serum, 0.001 PFU per cell HSV-2, up to forty-eight hours after infection): completely prevented viral release
inhibition at 10 µM (HSV-2 [1]; Human alphaherpesvirus 2, Vero, 10 μM in 2% (v/v) serum, 0.001 PFU per cell HSV-2, forty-eight hours, read-out: inhibition of production of cell-associated virus): 80%
inhibition of HCMV replication in plaque-elimination screen (HCMV; HEL cells): almost completely preventing the formation of microscopic viral plaques
inhibition of HSV-2 replication in plaque-elimination screen (HSV-2 [4]): almost completely preventing the formation of microscopic viral plaques

COc1ccc2[nH]c3cc(OCc4ccccc4)cc(O)c3c(=O)c2c1 [Compound 9, 3-Benzyloxy-1-hydroxy-7-methoxyacridone]
anti-HCMV activity relative to compound 2 (HCMV): about five-fold less active than 2
EC50 (HCMV; [8]): 6.9 ± 0.6 µM
inhibition of HCMV replication in plaque-elimination screen (HCMV; HEL cells): inhibited HCMV but not HSV-2 replication
inhibition of HSV-2 replication in plaque-elimination screen (HSV-2 [4]): inhibited HCMV but not HSV-2 replication

C=CCOc1cc(O)c2c(=O)c3cc(OC)ccc3[nH]c2c1 [Compound 10, 3-Allyloxy-1-hydroxy-7-methoxyacridone]
selectivity, inhibition of HSV-1 replication (HSV-1): 41 fold
change of ED50 concentration for inhibition of viral release (HSV-1; HSV-1, low viral load (0.01 PFU) and low serum (0.5% v/v), FIG. 4 panel D): decreased about six-fold
inhibition at 10 µM (HSV-1; Human alphaherpesvirus 1, Vero, 10 micromolar, 16 hours, 2% (v/v) serum, various viral loads, FIG. 5D, read-out: inhibition of HSV-1 viral replication): 64 to 95%
EC50 (HSV-1; [6]): 2.3 ± 0.3 µM
selectivity, inhibition of HSV-2 replication (HSV-2 [1]): 24 fold
EC50 (HSV-2 [1]; [7]): 3.9 ± 1 µM
inhibition of HCMV replication in plaque-elimination screen (HCMV; HEL cells): almost completely preventing the formation of microscopic viral plaques
percent inhibition observed at the highest concentration tested, HCMV (HCMV): 80%
activity against HCMV, in words (HCMV): at least as active as the 3,7-dimethoxy lead (2)
CC50 at 2 days [2, 9]: 95 ± 2 µM
CC50 at 2 days ([3]; HEL cells): > 50 µM
percent inhibition observed at the highest concentration tested, HEL growth (HEL): 33%
inhibition of HSV-2 replication in plaque-elimination screen (HSV-2 [4]): almost completely preventing the formation of microscopic viral plaques
effect on HSV-1 viral protein accumulation (HSV-1 proteins): no effect

COc1cc(O)c2c(=O)c3cc(OC(C)C)ccc3[nH]c2c1 [Compound 13, 1-Hydroxy-7-isopropoxy-3-methoxyacridone]
inhibition of HCMV replication in plaque-elimination screen (HCMV; HEL cells): active
CC50 at 2 days ([3]; HEL cells): 12 µM

O=C(O)P(=O)(O)O [PFA, phosphonoformic acid]
EC50 (HSV-2 [1]; Human alphaherpesvirus 2, Vero): 60 ± 5 µM
EC50 (HCMV; [8]): 70 ± 10 µM
CC50 at 2 days [2, 9]: > 500 µM
percent inhibition observed at the highest concentration tested, Vero growth (Vero): 11%
CC50 at 2 days ([3]; HEL cells): > 500 µM
percent inhibition observed at the highest concentration tested, HEL growth (HEL): 11%
